# Measurements: US6838453B2, “Antagonist derivatives of the vitronectin receptor” (Aventis Pharma S.A., priority 2000, dated 2005)
# Structures can show the parent of a compound that is named as a salt.
# Target: human αvβ3 receptor (Homo sapiens, UniProt P05106+P06756)
# Assay: Kistrin/Vitronectin Receptor (αvβ3) ELISA test
# Format: binding
# Conditions: Kistrin-coated plates, co-incubated 3 hours at ambient temperature, 4B12-HRP antibody, OD 450 nm, read-out: K/VnR IC50
# Protocol: Kistrin/Vitronectin Receptor (αvβ3) ELISA Test
# 96-well MaxiSorp planes are coated overnight at […] with 100 μl of Kistrin at 1 μg/ml (dilution in a coating buffer: carbonate 0.05 M/NaOH pH 9.6). The next day, the wells are emptied and the ligands (kistrin) are then fixed (fixing buffers: PBS containing 0.5% BSA (pH=7.4)) for 1 hour at ambient temperature with gentle agitation at 125 rpm. The wells are washed six times (washing buffer: PBS containing 0.05% of Tween 20 (pH 7.7) then the following are added per well and in this order: • 40 μl of incubation buffer • 10 μl of the dilution of the product to be tested (the products are diluted in a 50:50 mixture DMSO/Water) • 50 μl of human αvβ3 receptor (cf Pytella et al. Methods Enzymol. (1987) 144 (Dilution in incubation buffer, to be adapted according to the receptor batch and according to the ligand). The ligand, the αvβ3 receptor and the products to be studied are co-incubated for 3 hours at ambient temperature with gentle agitation at 125 rpm.
# The wells are again washed six times, then incubated for 2 hours at ambient temperature with gentle agitation at 125 rpm, in the presence of 100 μl of anti-receptor antibody conjugated to a peroxidase (The 4B12-HRP antibody is diluted in an incubation buffer (50 mM TRIS pH 7.4; 0.5% BSA; 0.05% Tween 20; 1 mM MnCl2; 50 μM CaCl2; 50 μM MgCl2; 100 mM NaCl) The dilution is adapted according to the receptor batch.
# The wells are then washed six times before measuring the ligand-receptor bond carried out using a peroxidase developer kit (TBM Microwell Peroxidase Substrate System Kirkegaard; Cat. Ref. 50-76-00).
# This kit contains a bottle A of substrate (3,3′,5,5′-tetramethylebenzidine at 0.4 g/l) and a bottle B (H2O2 at 0.02% in a Citrate/Citric acid buffer). Extemporaneously, a volume of A is mixed with a volume of B, then the reaction mixture is distributed at a rate of 100 μl/well.
# The enzymatic reaction develops between 6 and 10 minutes for Kistrin/αvβ3 then its evolution is stopped by the addition of 100 μl of 1M phosphoric acid. The optical density is determined at 450 nm.
# Expression of the Results
# The following curve is plotted: the bond percentage as a function of the logarithm of each concentration of the tested product.
# For each product, the IC50 is determined according to the following formula: IC50=(B0+Bmin)/2 • B0=Maximum bond in the absence of any product • Bmin =Minimum bond in the presence of the highest concentration of the product.
# Chain of human αvβ3 receptor (P06756 31-889 limits assumed): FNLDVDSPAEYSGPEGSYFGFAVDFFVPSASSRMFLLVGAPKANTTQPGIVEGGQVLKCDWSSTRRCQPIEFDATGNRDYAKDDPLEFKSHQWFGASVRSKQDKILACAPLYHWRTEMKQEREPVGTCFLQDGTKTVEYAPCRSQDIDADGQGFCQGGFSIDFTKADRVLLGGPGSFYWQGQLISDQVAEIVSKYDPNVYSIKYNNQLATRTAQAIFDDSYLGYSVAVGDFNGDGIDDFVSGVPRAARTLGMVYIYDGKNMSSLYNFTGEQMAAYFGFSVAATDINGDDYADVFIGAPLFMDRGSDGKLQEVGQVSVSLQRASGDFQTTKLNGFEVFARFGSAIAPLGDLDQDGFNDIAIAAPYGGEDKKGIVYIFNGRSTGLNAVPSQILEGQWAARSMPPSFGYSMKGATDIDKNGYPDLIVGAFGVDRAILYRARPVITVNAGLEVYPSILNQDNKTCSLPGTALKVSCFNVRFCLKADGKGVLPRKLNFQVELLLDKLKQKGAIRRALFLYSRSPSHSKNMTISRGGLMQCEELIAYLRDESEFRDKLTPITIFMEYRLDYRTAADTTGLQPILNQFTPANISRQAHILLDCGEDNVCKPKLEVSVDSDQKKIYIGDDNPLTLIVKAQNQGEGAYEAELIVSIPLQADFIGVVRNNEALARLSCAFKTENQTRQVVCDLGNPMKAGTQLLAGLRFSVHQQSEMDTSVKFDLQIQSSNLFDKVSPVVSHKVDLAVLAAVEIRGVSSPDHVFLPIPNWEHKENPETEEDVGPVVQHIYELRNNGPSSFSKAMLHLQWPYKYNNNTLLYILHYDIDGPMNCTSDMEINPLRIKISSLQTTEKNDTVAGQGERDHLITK
# Chain of human αvβ3 receptor (P06756 891-1048 limits assumed): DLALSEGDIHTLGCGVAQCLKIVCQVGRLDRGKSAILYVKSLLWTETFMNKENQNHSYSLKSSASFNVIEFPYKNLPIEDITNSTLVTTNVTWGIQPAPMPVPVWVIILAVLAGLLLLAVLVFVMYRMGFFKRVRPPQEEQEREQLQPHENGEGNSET
# Chain of human αvβ3 receptor (P05106 27-788): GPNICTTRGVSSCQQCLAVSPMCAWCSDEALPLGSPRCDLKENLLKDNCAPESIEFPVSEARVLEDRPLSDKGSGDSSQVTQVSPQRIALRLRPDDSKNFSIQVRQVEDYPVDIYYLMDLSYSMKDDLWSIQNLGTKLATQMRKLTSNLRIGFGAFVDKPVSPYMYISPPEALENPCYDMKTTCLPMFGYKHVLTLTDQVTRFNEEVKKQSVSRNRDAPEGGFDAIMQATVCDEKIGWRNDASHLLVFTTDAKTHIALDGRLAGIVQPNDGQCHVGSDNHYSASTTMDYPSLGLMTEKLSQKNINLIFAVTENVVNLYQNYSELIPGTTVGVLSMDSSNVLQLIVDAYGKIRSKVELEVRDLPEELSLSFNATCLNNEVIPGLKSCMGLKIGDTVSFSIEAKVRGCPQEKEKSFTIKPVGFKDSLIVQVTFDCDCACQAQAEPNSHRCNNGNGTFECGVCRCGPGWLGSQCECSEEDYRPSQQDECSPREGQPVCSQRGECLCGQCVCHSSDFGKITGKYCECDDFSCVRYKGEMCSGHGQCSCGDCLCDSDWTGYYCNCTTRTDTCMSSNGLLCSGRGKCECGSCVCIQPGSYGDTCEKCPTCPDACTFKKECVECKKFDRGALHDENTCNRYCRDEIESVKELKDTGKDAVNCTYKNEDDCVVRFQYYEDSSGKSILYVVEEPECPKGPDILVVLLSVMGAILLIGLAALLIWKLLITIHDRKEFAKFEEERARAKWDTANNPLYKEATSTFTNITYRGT
row,SMILES,IC50 [nM]
1,"O=C(O)[C@H](Cc1ccc(OCCCc2ccc3c(n2)NCCC3)cc1)Nc1nnnn1Cc1ccccc1 [Example 1, N-[1-(phenylmethyl)-1H-tetrazol-5-yl]-O-[3-(5,6,7,8-tetrahydro-1,8-naphthyridin-2-yl)propyl]-L-tyrosine]",9
2,"O=C(O)[C@H](Cc1ccc(OCCCc2ccc3c(n2)NCCC3)cc1)Nc1nc2ccccc2s1 [Example 2, N-(2-benzothiazolyl)-O-[3-(5,6,7,8-tetrahydro-1,8-naphthyridin-2-yl)propyl]-L-tyrosine]",70
3,"O=C(O)[C@H](Cc1ccc(OCCCc2ccc3c(n2)NCCC3)cc1)Nc1nc2ccccc2o1 [Example 3, N-(2-benzoxazolyl)-O-[3-(5,6,7,8-tetrahydro-1,8-naphthyridin-2-yl)propyl]-L-tyrosine]",50
4,COc1ccc2[nH]c(N[C@@H](Cc3ccc(OCCCC(=O)NC4=NCCCN4)cc3)C(=O)O)nc2c1 [Example 4a],19
5,"Cc1ccc2[nH]c(N[C@@H](Cc3ccc(OCCCC(=O)NC4=NCCCN4)cc3)C(=O)O)nc2c1 [Example 4b, N-[5-methyl-1H-benzimidazol-2-yl]-O-[4-oxo-4-[(1,4,5,6-tetrahydro-2-pyrimidinyl)amino]butyl]-L-tyrosine]",14
6,"O=C(CCCOc1ccc(C[C@H](Nc2nnnn2Cc2ccccc2)C(=O)O)cc1)NC1=NCCCN1 [Example 5, O-[4-oxo-4-[(1,4,5,6-tetrahydro-2-pyrimidinyl)amino]butyl]-N-[1-(phenylmethyl)-1H-tetrazol-5-yl]-L-tyrosine]",15
7,"O=C(CCCOc1ccc(C[C@H](Nc2nc3ccccc3o2)C(=O)O)cc1)NC1=NCCCN1 [Example 6, N-(2-benzoxazolyl)-O-[4-oxo-4-[(1,4,5,6-tetrahydro-2-pyrimidinyl)amino]butyl]-L-tyrosine]",5
8,"O=C(CCCOc1ccc(C[C@H](Nc2nc3ccccc3s2)C(=O)O)cc1)NC1=NCCCN1 [Example 7, N-(2-benzothiazolyl)-O-[4-oxo-4-[(1,4,5,6-tetrahydro-2-pyrimidinyl)amino]butyl]-L-tyrosine]",6
9,"O=C(CCCOc1ccc(C[C@H](Nc2nc3ccc(Br)cc3s2)C(=O)O)cc1)NC1=NCCCN1 [Example 8, N-(6-bromo-2-benzothiazolyl)-O-[4-oxo-4-[(1,4,5,6-tetrahydro-2-pyrimidinyl)amino]butyl]-L-tyrosine]",8
10,"O=C(CCCOc1ccc(C[C@H](Nc2nc3cc(Br)cc(F)c3o2)C(=O)O)cc1)NC1=NCCCN1 [Example 9, N-[5-bromo-7-fluoro-2-benzoxazolyl)-O-[4-oxo-4-[(1,4,5,6-tetrahydro-2-pyrimidinyl)amino]butyl]-L-tyrosine]",9
11,"O=C(CCc1ccc(C(=O)NC[C@H](Nc2nc3cc(Br)ccc3o2)C(=O)O)cc1)NC1=NCCCN1 [Example 10, N-(5-bromo-2-benzoxazolyl)-3-[[4-[3-oxo-3-[(1,4,5,6-tetrahydro-2-pyrimidinyl)amino]propyl]benzoyl]amino]-L-alanine]",6
12,"O=C(CCc1ccc(C(=O)NC[C@H](Nc2nc3ccc(Br)cc3s2)C(=O)O)cc1)NC1=NCCCN1 [Example 11, N-(6-bromo-2-benzothiazolyl)-3-[[4-[3-oxo-3-[(1,4,5,6-tetrahydro-2-pyrimidinyl)amino]propyl]benzoyl]amino]-L-alanine]",7
13,"O=C(CCCOc1ccc(C[C@H](Nc2nc3cccc(F)c3o2)C(=O)O)cc1)NC1=NCCCN1 [Example 12, N-(7-fluoro-2-benzoxazolyl)-O-[4-oxo-4-[(1,4,5,6-tetrahydro-2-pyrimidinyl)amino]butyl]-L-tyrosine]",9
14,"O=C(CCCOc1ccc(C[C@H](Nc2nc3ccc(F)cc3o2)C(=O)O)cc1)NC1=NCCCN1 [Example 13, N-(6-fluoro-2-benzoxazolyl)-O-[4-oxo-4-[(1,4,5,6-tetrahydro-2-pyrimidinyl)amino]butyl]-L-tyrosine]",7
15,"O=C(CCCOc1ccc(C[C@H](Nc2nc3cc(F)ccc3o2)C(=O)O)cc1)NC1=NCCCN1 [Example 14, N-(5-fluoro-2-benzoxazolyl)-O-[4-oxo-4-[(1,4,5,6-tetrahydro-2-pyrimidinyl)amino]butyl]-L-tyrosine trifluoroacetate]",7
16,"O=C(CCCOc1ccc(C[C@H](Nc2nc3cccc(Cl)c3o2)C(=O)O)cc1)NC1=NCCCN1 [Example 15, N-(7-chloro-2-benzoxazolyl)-O-[4-oxo-4-[(1,4,5,6-tetrahydro-2-pyrimidinyl)amino]butyl]-L-tyrosine trifluoroacetate]",5
17,"O=C(CCCOc1ccc(C[C@H](Nc2nc3ccc(Cl)cc3o2)C(=O)O)cc1)NC1=NCCCN1 [Example 16, N-(6-chloro-2-benzoxazolyl)-O-[4-oxo-4-[(1,4,5,6-tetrahydro-2-pyrimidinyl)amino]butyl]-L-tyrosine]",9
18,"O=C(CCCOc1ccc(C[C@H](Nc2nc3cc(Cl)ccc3o2)C(=O)O)cc1)NC1=NCCCN1 [Example 17, N-(5-chloro-2-benzoxazolyl)-O-[4-oxo-4-[(1,4,5,6-tetrahydro-2-pyrimidinyl)amino]butyl]-L-tyrosine]",9
19,"O=C(CCCOc1ccc(C[C@H](Nc2nc3cc(Br)ccc3o2)C(=O)O)cc1)NC1=NCCCN1 [Example 18, N-(5-bromo-2-benzoxazolyl)-O-[4-oxo-4-[(1,4,5,6-tetrahydro-2-pyrimidinyl)amino]butyl]-L-tyrosine trifluoroacetate]",11
20,"O=C(CCCOc1ccc(C[C@H](Nc2nc3cc4ccccc4cc3o2)C(=O)O)cc1)NC1=NCCCN1 [Example 19, N-(naphth[2,3-d]oxazol-2-yl)-O-[4-oxo-4-[(1,4,5,6-tetrahydro-2-pyrimidinyl)amino]butyl]-L-tyrosine]",6
21,"O=C(CCCOc1ccc(C[C@H](Nc2nc3c(ccc4ccccc43)o2)C(=O)O)cc1)NC1=NCCCN1 [Example 20, N-(naphth[1,2-d]oxazol-2-yl)-O-[4-oxo-4-[(1,4,5,6-tetrahydro-2-pyrimidinyl)amino]butyl]-L-tyrosine]",35
22,"O=C(CCCOc1ccc(C[C@H](Nc2nc3cc(-c4ccccc4)ccc3o2)C(=O)O)cc1)NC1=NCCCN1 [Example 21, O-[4-oxo-4-[(1,4,5,6-tetrahydro-2-pyrimidinyl)amino]butyl]-N-(5-phenyl-2-benzoxazolyl)-L-tyrosine]",6
23,"O=C(CCCOc1ccc(C[C@H](Nc2nc3ccc([N+](=O)[O-])cc3o2)C(=O)O)cc1)NC1=NCCCN1 [Example 22, N-(6-nitro-2-benzoxazolyl)-O-[4-oxo-4-[(1,4,5,6-tetrahydro-2-pyrimidinyl)amino]butyl]-L-tyrosine]",8
24,"O=C(CCCOc1ccc(C[C@H](Nc2nc3cc(C(F)(F)F)ccc3o2)C(=O)O)cc1)NC1=NCCCN1 [Example 23, O-[4-oxo-4-[(1,4,5,6-tetrahydro-2-pyrimidinyl)amino]butyl]-N-[5-(trifluoromethyl)-2-benzoxazolyl)-L-tyrosine]",10
25,"O=C(CCCOc1ccc(C[C@H](Nc2nc3ccc(F)c(F)c3o2)C(=O)O)cc1)NC1=NCCCN1 [Example 27, N-(6,7-difluoro-2-benzoxazolyl)-O-[4-oxo-4-[(1,4,5,6-tetrahydro-2-pyrimidinyl)amino]butyl]-L-tyrosine]",12
26,"O=C(CCCOc1ccc(C[C@H](Nc2nc3cc(Cl)cc(Cl)c3o2)C(=O)O)cc1)NC1=NCCCN1 [Example 28, N-(5,7-dichloro-2-benzoxazolyl)-O-[4-oxo-4-[(1,4,5,6-tetrahydro-2-pyrimidinyl)amino]butyl]-L-tyrosine]",7
27,"Cc1c(Cl)cc2nc(N[C@@H](Cc3ccc(OCCCC(=O)NC4=NCCCN4)cc3)C(=O)O)oc2c1Cl [Example 29, N-(5,7-dichloro-6-methyl-2-benzoxazolyl)-O-[4-oxo-4-[(1,4,5,6-tetrahydro-2-pyrimidinyl)amino]butyl]-L-tyrosine]",10
28,"O=C(CCCOc1ccc(C[C@H](Nc2nc3cc(S(=O)(=O)Nc4ccccc4)ccc3o2)C(=O)O)cc1)NC1=NCCCN1 [Example 30, N-[5-[(phenylamino)sulphonyl]-2-benzoxazolyl]-O-[4-oxo-4-[(1,4,5,6-tetrahydro-2-pyrimidinyl)amino]butyl]-L-tyrosine]",7
